Laboratory results as given in paper PMC9412534, “Diindolylmethane Derivatives: New Selective Blockers for T-Type Calcium Channels” (Membranes, 2022).
Like-named read-outs stand apart in the source and are kept apart here.

Legend:
[1] = biological target: CaV3.3 (Homo sapiens, UniProt Q9P0X4); experiment: T-type calcium channel window current FLIPR assay, CaV3.3; assay type: cell-based
Description: (§1) The human embryonic kidney 293 (HEK 293) cell lines (from Emmanuel Bourinet, Montpellier, France) stably expressing CaV3.2 or CaV3.3 were cultured under 5% carbon dioxide at 37 °C in Dulbecco’s Modified Eagle Medium (DMEM) Glutamax (Gibco, Life Technologies, Carlsbad, CA, USA) supplemented with 10% (v/v) fetal bovine serum (FBS), 100 U/mL penicillin, 100 μg/mL streptomycin (Gibco, Life Technologies, Carlsbad, CA, USA), and 750 μg/mL geneticin (G418) (Gibco, Life Technologies). The Chinese Hamster Ovary (CHO) cell lines (Emmanuel Bourinet, Montpellier, France) expressing CaV3.1 were cultured under 5% carbon dioxide at 37 °C in Alpha Minimum Essential Media (MEM) Glutamax (Gibco, Life Technologies), supplemented with 10% (v/v) fetal bovine serum (FBS) and 300 μg/mL geneticin (G418) (Gibco, Life Technologies). The human neuroblastoma SH-SY5Y cells (Victor Diaz, Goettingen, Germany) were cultured under 5% carbon dioxide at 37 °C in RPMI 1640 antibiotic-free medium (Invitrogen, Carlsbad, CA, USA), supplemented with 15% FBS and 2 mM GlutaMAX™ (Invitrogen). D-PBS (Gibco, Life Technologies) was used to wash the cells, and 0.25% Trypsin-EDTA (Gibco, Life Technologies) was used to detach cells from the flask surface. They were split in a ratio of 1:5 (ideally 1000 cells/cm^2) when they reached 70–80% confluence (every 2–3 days). Transiently transfected CaV3.1 HEK293 T cells were used in FLIPR Assays. HEK 293 T cells were cultured under 5% carbon dioxide at 37 °C in DMEM supplemented with 10% (v/v) FBS. D-PBS was used to wash the cells, and 0.25% Trypsin-EDTA was used to detach cells from the flask surface. The cells were split and seeded at 6 million cells per T175 flask, to reach 70–80% confluence after 24 h. The next day, 12 μg DNA of human CaV3.1 was incubated in 900 μL serum-free DMEM with 36 μL FuGENE HD transfection reagent (Promega Corporation, Madison, WI, USA) (1:3 DNA/Fugene ratio) for 20 min, and then the mixture was added into the cell flask slowly, drop by drop. After the transfection, the cells were cultured under 5% carbon dioxide at 37 °C for 24 h and then moved to a 28 °C incubator.
HEK 293 cells stably expressing CaV3.2 or CaV3.3 were seeded into 384-well black wall clear bottom plates (Corning) at a density of 30,000 cells per well. Transiently transfected CaV3.1HEK293 T cells were seeded into 384-well black wall clear bottom plates at a density of 60,000 cells per well. Once the cells reached 90–95% confluence after 24 h, the media were removed from the wells and replaced with 20 μL of 10% calcium 4 dye (Molecular Devices, Sunnyvale, CA, USA) in HBSS-HEPES (containing 5 mM KCl, 10 mM HEPES, 140 mM NaCl, 10 mM glucose, and 0.5 mM CaCl2, pH 7.4) with 0.1% bovine serum albumin (BSA). The cells were incubated for 30 min at 37 °C in the presence of 5% carbon dioxide. Each well on the reagent plates for the first addition contained 15 μL different concentrations of compounds dissolved in HBSS-HEPES containing 0.1% BSA and <0.5% DMSO and was incubated for 20 min after loaded. Positive and negative controls contained 15 μL of HBSS-HEPES (0.1% BSA) alone. The plates were placed in the FLIPR^TETRA (Molecular Devices, Sunnyvale, CA, USA) programmed to measure maximum fluorescence intensity following a second addition of the agonist 5 mM CaCl2. The fluorescence readings were recorded and converted as described previously, and HBSS-HEPES (0.1% BSA) was used in the second addition as a negative control.

[2] = test system: CaV1; experiment: HVA L-type calcium channel FLIPR assay in SH-SY5Y cells; assay type: cell-based, human; conditions: 1 µM CVID present, n = 3, read-out: IC50 CaV1 (HVA CaVs)
Description: as §1
SH-SY5Y cells were seeded into 384-well black wall clear bottom plates at a density of 15,000 cells per well, resulting in 90–95% confluence after 24 h. The media were then removed from the wells and replaced with 20 μL of 10% calcium 4 dye (Molecular Devices) in physiological salt solution (PSS) (containing 5.9 mM KCl, 1.4 mM MgCl2, 10 mM HEPES, 1.2 mM NaH2 PO4, 5 mM NaHCO3, 140 mM NaCl, 11.5 mM glucose, and 1.8 mM CaCl2, pH 7.4) with 0.1% BSA. As reported, for N-type calcium channel FLIPR assays the cells were pre-incubated with 10 µM nifedipine added in the dye to ensure full inhibition of L-type calcium responses. For L-type calcium channel FLIPR assays, the cells were pre-incubated with 1 µM CVID added in the dye to ensure full inhibition of N-type calcium responses. Positive control on the first reagent plate contained 15 μL of PSS (0.1% BSA), whereas PSS (0.1% BSA) containing 1 µM CVID and 10 µM nifedipine (final concentration) was used as a negative control. The fluorescence readings were recorded and converted as described previously, and agonist containing 90 mM KCl + 5 mM CaCl2 was used in the second addition.

[3] = test system: T-47D cells; experiment: Cell viability MTT assay, T-47D; assay type: cell-based, human; conditions: for IC50: n = 3; for viability at 50 µM: n = 4
Description: (§2) Human breast cancer cell line MCF-7 and T-47D, lung cancer cell line A549, and colon cancer cell line HT-29 were cultured under 5% carbon dioxide at 37 °C in DMEM Glutamax (Gibco, Life Technologies) supplemented with 10% (v/v) FBS. They were split in a ratio of 1:3–1:6 (ideally 2–4 × 10,000 cells/cm^2) when they reached 70–80% confluence using 0.25% Trypsin-EDTA. For cell viability MTT assay, cells were seeded into 96-well clear bottom culture plates (Corning, Lowell, MA, USA) at a density of 5 × 10^3 cells/well and settled at 37 °C for 24 h.
(§3) Seeded cells were treated with various concentrations of compounds for desired time period (24, 48 and 72 h). After the treatments, the media were removed from each well, and replaced with 25 μL of serum-free media and 25 μL of MTT Reagent (cat. no., ab211091; Abcam, Cambridge, MA, USA). The plate was then incubated at 37 °C for 3 h, and 75 μL of MTT Solvent (cat. no., ab211091; Abcam) was added into each well after incubation. The absorbance was evaluated at 590 nm. Cell-wells treated with 0.1% DMSO were used as positive control and no cell-wells were used as background control.

[4] = test system: A549 cells; experiment: Cell viability MTT assay, A549; assay type: cell-based, human; conditions: for IC50: n = 3; for viability at 50 µM: A549, 50 µM, n = 4
Description: as §2, §3

[5] = FLIPR window current, n = 3, read-out: IC50 CaV3.3 (LVA CaVs)
[6] = Homo sapiens, T47D, 72 h treatment
[7] = Homo sapiens, T47D, 72 h, 72 h treatment
[8] = Homo sapiens, A549, 72 h, 72 h treatment
[9] = FLIPR, one separate experiment in quadruplicate (n = 4), read-out: IC50 of representative concentration-response curve, CaV3.3 window current

Sequence of CaV3.3 (Q9P0X4 whole entry): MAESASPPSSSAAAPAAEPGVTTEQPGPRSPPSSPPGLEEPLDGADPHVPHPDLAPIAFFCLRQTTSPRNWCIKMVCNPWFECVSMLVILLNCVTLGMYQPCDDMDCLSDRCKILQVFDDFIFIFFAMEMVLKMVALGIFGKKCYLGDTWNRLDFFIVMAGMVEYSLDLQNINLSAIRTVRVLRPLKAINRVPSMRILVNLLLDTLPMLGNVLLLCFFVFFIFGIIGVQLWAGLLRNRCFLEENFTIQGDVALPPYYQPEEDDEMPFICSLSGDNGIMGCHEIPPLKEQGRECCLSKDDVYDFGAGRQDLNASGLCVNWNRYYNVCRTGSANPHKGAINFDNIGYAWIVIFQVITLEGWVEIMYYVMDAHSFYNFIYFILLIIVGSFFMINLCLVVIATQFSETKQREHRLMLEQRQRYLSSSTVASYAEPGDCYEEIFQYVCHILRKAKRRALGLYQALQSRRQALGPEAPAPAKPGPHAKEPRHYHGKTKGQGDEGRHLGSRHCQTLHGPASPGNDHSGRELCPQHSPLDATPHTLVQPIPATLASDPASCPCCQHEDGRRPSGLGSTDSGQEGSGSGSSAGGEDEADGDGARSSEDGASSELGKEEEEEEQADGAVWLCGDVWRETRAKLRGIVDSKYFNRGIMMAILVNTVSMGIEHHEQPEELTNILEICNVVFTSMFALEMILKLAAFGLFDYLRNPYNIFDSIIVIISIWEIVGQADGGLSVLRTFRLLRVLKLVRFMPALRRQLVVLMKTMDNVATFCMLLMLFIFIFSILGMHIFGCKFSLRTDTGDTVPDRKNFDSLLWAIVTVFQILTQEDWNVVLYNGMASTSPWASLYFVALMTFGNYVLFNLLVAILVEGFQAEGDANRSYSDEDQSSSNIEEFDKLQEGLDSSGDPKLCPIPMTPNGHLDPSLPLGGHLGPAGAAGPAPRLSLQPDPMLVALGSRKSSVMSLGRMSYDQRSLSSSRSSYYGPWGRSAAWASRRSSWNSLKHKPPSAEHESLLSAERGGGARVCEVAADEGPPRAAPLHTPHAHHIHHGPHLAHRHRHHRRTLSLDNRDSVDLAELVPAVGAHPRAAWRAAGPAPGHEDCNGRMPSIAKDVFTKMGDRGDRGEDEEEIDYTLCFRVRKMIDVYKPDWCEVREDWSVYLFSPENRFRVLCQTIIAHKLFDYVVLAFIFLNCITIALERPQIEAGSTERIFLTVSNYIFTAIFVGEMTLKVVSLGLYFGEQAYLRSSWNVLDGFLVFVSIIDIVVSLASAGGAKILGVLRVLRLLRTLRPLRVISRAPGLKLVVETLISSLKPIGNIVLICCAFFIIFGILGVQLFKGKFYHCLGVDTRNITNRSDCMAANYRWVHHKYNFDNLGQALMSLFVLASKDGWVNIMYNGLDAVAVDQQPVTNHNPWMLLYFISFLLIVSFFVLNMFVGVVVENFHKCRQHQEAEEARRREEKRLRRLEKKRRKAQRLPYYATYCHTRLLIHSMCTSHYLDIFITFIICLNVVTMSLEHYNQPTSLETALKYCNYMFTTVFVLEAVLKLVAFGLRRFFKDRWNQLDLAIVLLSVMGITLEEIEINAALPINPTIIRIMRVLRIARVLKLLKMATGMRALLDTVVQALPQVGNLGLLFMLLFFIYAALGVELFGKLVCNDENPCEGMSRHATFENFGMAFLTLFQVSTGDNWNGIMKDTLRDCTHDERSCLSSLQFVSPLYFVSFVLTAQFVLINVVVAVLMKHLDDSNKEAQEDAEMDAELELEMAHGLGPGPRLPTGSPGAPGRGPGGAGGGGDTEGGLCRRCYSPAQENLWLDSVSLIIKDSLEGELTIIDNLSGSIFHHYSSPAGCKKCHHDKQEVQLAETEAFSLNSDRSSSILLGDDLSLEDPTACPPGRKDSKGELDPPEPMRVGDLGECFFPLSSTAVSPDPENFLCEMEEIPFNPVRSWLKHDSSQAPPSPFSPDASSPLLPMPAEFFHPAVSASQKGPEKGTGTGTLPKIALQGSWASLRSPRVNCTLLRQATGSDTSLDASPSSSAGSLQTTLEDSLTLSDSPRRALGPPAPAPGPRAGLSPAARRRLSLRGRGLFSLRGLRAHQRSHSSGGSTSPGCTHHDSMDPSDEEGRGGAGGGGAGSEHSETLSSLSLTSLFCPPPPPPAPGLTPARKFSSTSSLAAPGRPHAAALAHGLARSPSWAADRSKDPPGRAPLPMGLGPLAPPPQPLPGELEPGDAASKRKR

| SMILES | less active at HVA CaVs than at CaV3.2 and CaV3.3 ([1]; FLIPR) [fold] | IC50 ([1]; IC50 CaV3.3 (LVA CaVs), FLIPR window current, n = 3) [µM] | IC50 ([1]; IC50 of representative concentration-response curve, CaV3.3 window current, FLIPR, one separate experiment in quadruplicate (n = 4)) [µM] | IC50 [2] [µM] | IC50 [1, 5] [µM] | IC50 ([3]; 72 h treatment) [µM] | viability at 50 µM [3, 6] [%] | IC50 ([3]; Homo sapiens, T47D, 24 h, 24 h treatment) [µM] | IC50 ([3]; Homo sapiens, T47D, 48 h, 48 h treatment) [µM] | IC50 [3, 7] [µM] | IC50 ([4]; 72 h treatment) [µM] | viability at 50 µM ([4]; Homo sapiens, 72 h treatment) [%] | IC50 ([4]; Homo sapiens, A549, 24 h, 24 h treatment) [µM] | IC50 ([4]; Homo sapiens, A549, 48 h, 48 h treatment) [µM] | IC50 [4, 8] [µM] | CaV3.3 window current potency better than at CaV3.1 and CaV3.2 ([1]; FLIPR) | CaV3.3 window current potency better than potency at HVA CaVs ([1]; FLIPR) [fold] | IC50 [1, 9] [µM] | reduced potency for CaV3.3 window current compared to DIM ([1]; FLIPR) [fold] |
| --- | --- | --- | --- | --- | --- | --- | --- | --- | --- | --- | --- | --- | --- | --- | --- | --- | --- | --- | --- |
| O=C(c1cn(Cc2ccccc2)c2ccccc12)c1cn(Cc2ccccc2)c2ccccc12 [IX, bis(1-benzyl-1H-indol-3-yl)methanone] | > 7 | 6.68 ± 0.79 | 5.27 | 48 ± 2.79 | – | – | – | – | – | – | – | – | – | – | – | – | – | – | – |
| O=C(c1c[nH]c2cc(Br)ccc12)c1c[nH]c2cc(Br)ccc12 [IV] | – | – | – | 38.8 ± 5.01 | 62.5 ± 4.1 | 4.1 | 6.14 ± 0.55 | 13.8 | 3.9 | 4 | 3.5 | 2.92 ± 0.29 | 8 | 4.7 | 3 | – | – | – | – |
| c1ccc2c(Cc3c[nH]c4ccccc34)c[nH]c2c1 [DIM, 3,3′-diindolylmethane, reference compound] | – | – | – | 68.6 ± 6.65 | 2.09 ± 0.43 | – | 18.9 ± 1.15 | – | – | 36 | – | 55.6 ± 1.13 | – | – | 47 | ~ 25 fold | > 27 | 2.77 | – |
| O=C(c1c[nH]c2ccccc12)c1c[nH]c2ccccc12 [DIM-one, 3,3′-diindolylmethanone] | – | – | – | 61 ± 3.99 | 9.07 ± 0.69 | – | 50.6 ± 2.08 | – | – | 44 | – | 81.3 ± 3 | – | – | 66 | – | – | 8.18 | 4.3 |
